The record followed here is paper PMC8997241, “Structurally Various Sorbicillinoids From an Endophytic Fungus Acremonium citrinum SS-g13” (Frontiers in Microbiology, 2022).

This test concerns J774A.1 macrophages. Put plainly: Serum-mediated cholesterol efflux (BODIPY-cholesterol). Type of test: cell-based. The note with it: compounds 10 µM, 24 h, then serum 6 h; pioglitazone 3 µM positive control.

Molecules are shown by their SMILES. “Also recorded” adds a separate entry of the source.

In the case of `C/C=C/C=C/C(O)=C1/C(=O)C(C)=C(O)[C@@]2(C)O[C@@]3(O)[C@@](C)(O)C(=O)C(C(=O)CC/C=C/C)=C(O)[C@@]3(C)[C@@H]12` [Compound 11, dihydrobisvertinolone], the “cholesterol efflux enhancing activity” value is “significant cholesterol efflux enhancing activity; also recorded: exhibited cholesterol efflux enhancing activity”.
